In article PMC9962638, “Integrating Siderophore Substructures in Thiol-Based Metallo-β-Lactamase Inhibitors” (Molecules, 2023):

Target: T1, NDM-1 (Klebsiella pneumoniae, UniProt C7C422)
T1 construct: gene blaNDM-1; recombinant, expressed in E. coli
Assay: fluorescence enzyme assay, fluorocillin hydrolysis
Format: biochemical
From the text: fluorescence enzyme assay, fluorocillin hydrolysis on NDM-1

T1 sequence (C7C422 29-270 limits assumed): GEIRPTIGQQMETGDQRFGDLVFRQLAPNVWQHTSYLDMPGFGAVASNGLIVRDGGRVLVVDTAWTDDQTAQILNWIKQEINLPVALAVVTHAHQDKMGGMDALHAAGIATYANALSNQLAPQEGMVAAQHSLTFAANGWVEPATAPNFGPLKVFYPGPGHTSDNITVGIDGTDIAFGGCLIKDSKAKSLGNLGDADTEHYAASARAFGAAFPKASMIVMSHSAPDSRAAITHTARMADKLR

Structure (SMILES) | IC50 [nM]
C[C@H](CS)C(=O)N1CCN(C(=O)CCc2ccc(O)c(O)c2)C[C@@H]1C(=O)O [compound 3, (R)-4-(3-(3,4-dihydroxyphenyl)propanoyl)-1-((S)-3-mercapto-2-methylpropanoyl)piperazine-2-carboxylic acid] | 130 ± 17
O=C(O)[C@H]1CCCCN1C(=O)C(CS)Cc1cccc(O)c1O (stereo partly drawn) [compound 2, (2R)-1-(2-(2,3-dihydroxybenzyl)-3-mercaptopropanoyl)piperidine-2-carboxylic acid] | 4300 ± 440
COc1cccc(CC(CS)C(=O)N2CCCC[C@@H]2C(=O)O)c1OC (stereo partly drawn) [compound 12, (2R)-1-(2-(2,3-dimethoxybenzyl)-3-mercaptopropanoyl)piperidine-2-carboxylic acid] | 1900 ± 270
COc1ccc(CCC(=O)N2CCN(C(=O)[C@H](C)CS)[C@@H](C(=O)O)C2)cc1OC [compound 18, (R)-4-(3-(3,4-dimethoxyphenyl)propanoyl)-1-((S)-3-mercapto-2-methylpropanoyl)piperazine-2-carboxylic acid] | 220 ± 16
